Measurements: PubChem BioAssay AID256 (DTP/NCI, 2004)
Inconclusive results and toxic doses are left out.

Test system: CD2F1 mice, L1210 leukemia ip, survival T/C
Assay: NCI In Vivo Anticancer Drug Screen. Data for tumor model L1210 Leukemia (intraperitoneal) in CD2F1 (CDF1) mice
Conditions: higher = longer survival
Method in brief: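 Antitumor effect is scored in animals hosting a serially transplanted tumor. Values compare compound-dosed animals against vehicle-only controls as a simple quotient.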

[1] = endpoint: mean survival time, dose: 6.25 mg/kg/injection, schedule: Q01DX009 (ip), vehicle: saline with Tween-80
[2] = endpoint: mean survival time, dose: 12.5 mg/kg/injection, schedule: Q01DX009 (ip), vehicle: saline with Tween-80
[3] = endpoint: mean survival time, dose: 100.0 mg/kg/injection, schedule: Q01DX009 (ip), vehicle: saline with Tween-80
[4] = endpoint: mean survival time, dose: 200.0 mg/kg/injection, schedule: Q01DX009 (ip), vehicle: saline with Tween-80
[5] = endpoint: mean survival time, dose: 100.0 mg/kg/injection, schedule: Q04DX003 (ip), vehicle: saline with Tween-80
[6] = endpoint: mean survival time, dose: 200.0 mg/kg/injection, schedule: Q04DX003 (ip), vehicle: saline with Tween-80
[7] = endpoint: mean survival time, dose: 400.0 mg/kg/injection, schedule: Q04DX003 (ip), vehicle: saline with Tween-80

## CC1CCCC(C)N1CC(O)c1ccccc1 (stereo not given)
[1]
  T/C: 98 % of control
[2]
  T/C: 100 % of control
endpoint: mean survival time, dose: 25.0 mg/kg/injection, schedule: Q01DX009 (ip), vehicle: saline with Tween-80
  T/C: 102 % of control

## CC(=O)[C@]1(O)Cc2c(O)c3c(c(O)c2[C@@H](OC2CC(N)C(O)C(C)O2)C1)C(=O)c1c(O)cccc1C3=O (stereo not given in full)
endpoint: mean survival time, dose: 0.05 mg/kg/injection, schedule: Q01DX009 (ip), vehicle: saline
  T/C: 118 % of control
endpoint: mean survival time, dose: 0.08 mg/kg/injection, schedule: Q01DX009 (ip), vehicle: saline
  T/C: 120 % of control
endpoint: mean survival time, dose: 0.08 mg/kg/injection, schedule: Q04DX003 (ip), vehicle: saline
  T/C: 107 % of control
endpoint: mean survival time, dose: 0.14 mg/kg/injection, schedule: Q04DX003 (ip), vehicle: saline
  T/C: 109 % of control
endpoint: mean survival time, dose: 0.23 mg/kg/injection, schedule: Q04DX003 (ip), vehicle: saline
  T/C: 123 % of control
endpoint: mean survival time, dose: 0.39 mg/kg/injection, schedule: Q01DX009 (ip), vehicle: saline
  T/C: 113 % of control
endpoint: mean survival time, dose: 0.65 mg/kg/injection, schedule: Q01DX009 (ip), vehicle: saline
  T/C: 88 % of control

## NC(=O)N/N=C1\CC2C=CCC12 (stereo not given)
[3]
  T/C: 95 % of control
[4]
  T/C: 98 % of control

## CCCC[N+](CCCC)(CCCC)CCCC.[O-][PH+](O)O[PH+]([O-])O.[O-][PH+](O)O[PH+]([O-])O.[O-][PH+](O)O[PH+]([O-])O.[O-][PH+](O)O[PH+]([O-])O.[Pt+2].[Pt+2]
endpoint: median survival time, dose: 10.0 mg/kg/injection, schedule: Q04DX003 (ip), vehicle: water
  T/C: 100 % of control
endpoint: median survival time, dose: 40.0 mg/kg/injection, schedule: Q04DX003 (ip), vehicle: water
  T/C: 105 % of control

## CCOC(=O)c1cc(OC(C)=O)c2c(ccc3ccccc32)c1C
endpoint: mean survival time, dose: 100.0 mg/kg/injection, schedule: Q04DX003 (ip), vehicle: Klucel (hydroxypropylcellulose) (HPC)
  T/C: 101 % of control
endpoint: mean survival time, dose: 200.0 mg/kg/injection, schedule: Q04DX003 (ip), vehicle: Klucel (hydroxypropylcellulose) (HPC)
  T/C: 104 % of control
endpoint: mean survival time, dose: 400.0 mg/kg/injection, schedule: Q04DX003 (ip), vehicle: Klucel (hydroxypropylcellulose) (HPC)
  T/C: 97 % of control

## CC(C)(Nc1ccccc1)c1cccs1
[5]
  T/C: 101 % of control
[6]
  T/C: 97 % of control
[7]
  T/C: 112 % of control

## Cc1cc(F)ccc1NC(=O)OC(C)C
[5]
  T/C: 101 % of control
[6]
  T/C: 92 % of control
[7]
  T/C: 104 % of control

## CCC(C(C)N1CC(=O)NC(=O)C1)N1CC(=O)NC(=O)C1 (stereo not given)
endpoint: mean survival time, dose: 0.06 mg/kg/injection, schedule: Q01DX009 (ip), vehicle: Klucel (hydroxypropylcellulose) (HPC)
  T/C: 109 % of control
endpoint: mean survival time, dose: 0.13 mg/kg/injection, schedule: Q01DX009 (ip), vehicle: Klucel (hydroxypropylcellulose) (HPC)
  T/C: 114 % of control
endpoint: mean survival time, dose: 0.5 mg/kg/injection, schedule: Q04DX003 (ip), vehicle: Klucel (hydroxypropylcellulose) (HPC)
  T/C: 119 % of control
endpoint: mean survival time, dose: 1.0 mg/kg/injection, schedule: Q01DX009 (ip), vehicle: Klucel (hydroxypropylcellulose) (HPC)
  T/C: 120 % of control
endpoint: mean survival time, dose: 1.0 mg/kg/injection, schedule: Q04DX003 (ip), vehicle: Klucel (hydroxypropylcellulose) (HPC)
  T/C: 154 % of control
endpoint: mean survival time, dose: 2.0 mg/kg/injection, schedule: Q01DX009 (ip), vehicle: Klucel (hydroxypropylcellulose) (HPC)
  T/C: 89 % of control
endpoint: mean survival time, dose: 2.0 mg/kg/injection, schedule: Q04DX003 (ip), vehicle: Klucel (hydroxypropylcellulose) (HPC)
  T/C: 178 % of control
endpoint: mean survival time, dose: 4.0 mg/kg/injection, schedule: Q04DX003 (ip), vehicle: Klucel (hydroxypropylcellulose) (HPC)
  T/C: 167 % of control
endpoint: mean survival time, dose: 8.0 mg/kg/injection, schedule: Q04DX003 (ip), vehicle: Klucel (hydroxypropylcellulose) (HPC)
  T/C: 100 % of control

## CCCCc1ccc2nc(NC(=O)OC)[nH]c2c1
[1]
  T/C: 107 % of control
[2]
  T/C: 113 % of control
[3]
  T/C: 166 % of control
[4]
  T/C: 86 % of control

## CCN(CC)C(=S)N1C(=O)C2C3CCC(O3)C2C1=O (stereo not given)
endpoint: mean survival time, dose: 25.0 mg/kg/injection, schedule: Q04DX002 (ip), vehicle: saline with Tween-80
  T/C: 93 % of control

## CCCN(CCC)CCCCCCO
endpoint: mean survival time, dose: 50.0 mg/kg/injection, schedule: Q01DX009 (ip), vehicle: saline with Tween-80
  T/C: 98 % of control
[3]
  T/C: 98 % of control
[4]
  T/C: 97 % of control
